In ChEMBL document CHEMBL4196082, “2-Aryl benzimidazoles: Synthesis, In vitro α-amylase inhibitory activity, and molecular docking study” (Eur J Med Chem, 2018):

Target: T1, Alpha amylase (Homo sapiens, UniProt P0DUB6)
T1 sequence (P0DUB6 whole entry): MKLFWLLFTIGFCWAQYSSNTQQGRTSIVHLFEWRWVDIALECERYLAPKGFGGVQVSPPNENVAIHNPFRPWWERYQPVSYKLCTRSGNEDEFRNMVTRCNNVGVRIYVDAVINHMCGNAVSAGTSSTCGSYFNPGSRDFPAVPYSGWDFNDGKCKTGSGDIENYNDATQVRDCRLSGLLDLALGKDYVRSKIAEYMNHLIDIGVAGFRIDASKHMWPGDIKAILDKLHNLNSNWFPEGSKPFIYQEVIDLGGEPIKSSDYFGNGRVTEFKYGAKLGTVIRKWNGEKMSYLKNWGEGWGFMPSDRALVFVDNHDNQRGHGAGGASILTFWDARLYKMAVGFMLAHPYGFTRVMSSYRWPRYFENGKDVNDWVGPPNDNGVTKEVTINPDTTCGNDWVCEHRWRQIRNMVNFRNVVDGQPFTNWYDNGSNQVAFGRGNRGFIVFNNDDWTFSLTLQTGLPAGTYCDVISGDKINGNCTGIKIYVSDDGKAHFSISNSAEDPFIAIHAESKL
Assay: Inhibition of alpha-amylase (unknown origin) using starch as substrate preincubated for 10 mins followed by substrate addition measured after 10 mins by dinitrosalicylic acid reagent-based assay

Row | Structure (SMILES) | IC50
1 | Cc1cc2nc(-c3cc(Cl)cc(Cl)c3O)[nH]c2cc1C | 2980 nM
2 | Cc1cc2nc(-c3cc(Cl)cc(Br)c3O)[nH]c2cc1C | 2920 nM
3 | COc1cc(-c2nc3cc(F)ccc3[nH]2)cc(OC)c1O | 2490 nM
4 | COc1ccc(-c2nc3cc(F)ccc3[nH]2)c(Cl)c1OC | 2560 nM
5 | COc1cc(Br)c(-c2nc3ccccc3[nH]2)cc1OC | 1510 nM
6 | COc1cccc(-c2nc3cc([N+](=O)[O-])ccc3[nH]2)c1Cl | 2780 nM
7 | Oc1ccc(-c2nc3cc(F)ccc3[nH]2)c(O)c1 | 2980 nM
8 | COc1cc(Br)c(-c2nc3cc(F)ccc3[nH]2)cc1OC | 1570 nM
9 | COc1cc(-c2nc3cc([N+](=O)[O-])ccc3[nH]2)cc(I)c1O | 1720 nM
10 | COc1ccc(Br)c(-c2nc3ccccc3[nH]2)c1O | 2480 nM
11 | COc1ccc(-c2nc3cc(C)c(C)cc3[nH]2)c(OC)c1OC | 2300 nM
12 | COc1cc(-c2nc3cc(C)c(C)cc3[nH]2)cc(OC)c1Br | 1590 nM
13 | COc1cc(Br)c(-c2nc3cc(Cl)ccc3[nH]2)cc1OC | 1730 nM
14 | COc1ccc(Br)c(-c2nc3cc([N+](=O)[O-])ccc3[nH]2)c1O | 2290 nM
15 | COc1cc(-c2nc3cc(Cl)ccc3[nH]2)ccc1OC(C)=O | 1680 nM
16 | Oc1c(Br)cc(Cl)cc1-c1nc2cc(F)ccc2[nH]1 | 2860 nM
17 | COc1ccc(-c2nc3cc([N+](=O)[O-])ccc3[nH]2)c(F)c1 | 2750 nM
18 | COc1cc(-c2nc3cc(C)c(C)cc3[nH]2)cc(I)c1O | 1770 nM
19 | COc1ccc(Br)c(-c2nc3cc(Cl)ccc3[nH]2)c1O | 2210 nM
20 | COc1cccc(-c2nc3cc(C)c(C)cc3[nH]2)c1Cl | 2840 nM
21 | COc1cc(-c2nc3cc(F)ccc3[nH]2)ccc1OC(C)=O | 1680 nM
22 | COc1ccc(-c2nc3cc(C)c(C)cc3[nH]2)c(F)c1 | 2780 nM
23 | COc1cc(-c2nc3cc(Cl)ccc3[nH]2)cc(OC)c1O | 2520 nM

Row | Structure (SMILES) | IC50
24 | COc1cc(-c2nc3cc([N+](=O)[O-])ccc3[nH]2)ccc1OC(C)=O | 1730 nM
25 | Oc1c(Cl)cc(Cl)cc1-c1nc2cc(F)ccc2[nH]1 | 2870 nM
26 | Cc1cc2nc(-c3cc(O)ccc3O)[nH]c2cc1C | 2990 nM
27 | COc1cc(Br)c(-c2nc3cc(C)c(C)cc3[nH]2)cc1OC | 1480 nM
28 | COc1ccc(-c2nc3cc(F)ccc3[nH]2)c(F)c1 | 1590 nM
29 | COc1ccc(Br)cc1-c1nc2cc(F)ccc2[nH]1 | 2600 nM
30 | COc1cc(-c2nc3cc(Cl)ccc3[nH]2)cc(I)c1O | 1610 nM
31 | COc1cc(Br)c(-c2nc3cc([N+](=O)[O-])ccc3[nH]2)cc1OC | 1870 nM
32 | COc1ccc(Br)c(-c2nc3cc(F)ccc3[nH]2)c1O | 2170 nM
33 | Oc1ccc(-c2nc3cc(F)ccc3[nH]2)c(O)c1O | 2540 nM
34 | COc1cccc(-c2nc3cc(Cl)ccc3[nH]2)c1Cl | 2780 nM
35 | COc1ccc(-c2nc3cc(Cl)ccc3[nH]2)c(F)c1 | 2740 nM
36 | Oc1c(Br)cc(Cl)cc1-c1nc2cc(Cl)ccc2[nH]1 | 2860 nM
37 | COc1ccc(Br)c(-c2nc3cc(C)c(C)cc3[nH]2)c1O | 2260 nM
38 | O=[N+]([O-])c1ccc2[nH]c(-c3cc(Br)ccc3F)nc2c1 | 2310 nM
39 | COc1cc(-c2nc3cc(Cl)ccc3[nH]2)cc(OC)c1Br | 1620 nM
40 | COc1cccc(-c2nc3ccccc3[nH]2)c1Cl | 2740 nM
41 | COc1ccc(-c2nc3cc(Cl)ccc3[nH]2)c(Cl)c1OC | 1510 nM
42 | COc1cccc(-c2nc3cc(F)ccc3[nH]2)c1Cl | 2620 nM
43 | Oc1c(Br)cc(Cl)cc1-c1nc2ccccc2[nH]1 | 2850 nM
44 | COc1ccc(Br)cc1-c1nc2cc(Cl)ccc2[nH]1 | 2620 nM
45 | O=[N+]([O-])c1ccc2[nH]c(-c3cc(Cl)cc(Br)c3O)nc2c1 | 2870 nM
